Data reported in patent US20080269343A1, “GALENIC FORMULATIONS OF ORGANIC COMPOUNDS” (priority 2004, published 2008).

Assays:
[1] = Hygroscopicity of the drug substance; assay type: physicochemical
[2] = Single and multiple dose 300 mg pharmacokinetic study in Japanese and Caucasian healthy male subjects (Example 5); assay type: in vivo, human; settings: for Cavg^SS / AUC(0-t) / Cmax / AUC: arithmetic mean (SD); for Tmax / AUC(0-t) / Cmax / AUC: male, human, plasma, oral, 300 mg; for Tmax: Median (minimum-maximum); for AUC(0-t): read-out: AUC0-72; for AUC: read-out: AUC0-τ
Protocol: An open label, non-randomized, single center, parallel group single and multiple dose study in healthy male subjects was carried out. Two parallel groups, one Japanese (n=19), the other Caucasian (n=19), age (±5 years) and weight matched (±25%), were enrolled in this study. Each subject participated in a 21-day screening period, a baseline period (Day −1), a 10 day treatment period (Days 1-10) and a study completion evaluation 4-7 days after the last PK sample. Each subject received a single 300 mg oral dose of aliskiren (dosage form 3) on Day 1 with 72 hour PK sampling, followed by multiple (once a day for 7 days) 300 mg oral doses of aliskiren on Days 4 through to 10. All administrations of aliskiren were given following a 10 hour fast. Subjects were domiciled in the study center from Day −1 (baseline) until the 24 hour post last-dose evaluations were completed oh Day 11.
Blood samples were collected to determine the pharmacokinetics following a single oral dose of 300 mg of aliskiren and multiple doses (once daily) of aliskiren 300 mg. Plasma concentrations of aliskiren were used to determine the pharmacokinetic parameters using non-compartmental methods, and the data are summarized in FIGS. 5 and 6, and Tables 4 and 5.

[3] = Steady-state pharmacokinetics of aliskiren 300 mg alone, hydrochlorothiazide interaction study, Day 15 (Example 7); assay type: in vivo, human; settings: 300 mg daily, Day 15, healthy volunteers N 22; for AUC / Cmax / Tmax: both sexes, human, in vivo, oral, 300 mg
Protocol: The study employed was an open-label, two-period, multiple dose design to evaluate the pharmacokinetic drug-drug interaction between hydrochlorothiazide (HCTZ) and aliskiren when given alone or in combination to healthy volunteers. After screening, a total of 22 healthy male and female volunteers were enrolled into the study. The subjects were admitted to the study center at least 12 hours prior to the initial dosing of HCTZ for baseline evaluation. If subjects met all eligibility criteria at baseline, they were randomized into the study and confined to the clinic until study completion. All study medications were taken under fasted conditions. The subjects remained in bed for at least 4 hours after dosing on PK sampling days. The study was completed with the end of study evaluations on Day 20, after the last blood sample was collected.
In period 1 (study Days 1-4), subjects received a single 25 mg daily dose of HCTZ. Period 1 was followed by a 4 day washout period, study Days 5-8. In period 2 (study Days 9-19), subjects received 300 mg of aliskiren once a day for a total of 11 days (Days 9-19), with a single 25 mg dose of HCTZ co-administered for 4 days (Days 16-19).
Pharmacokinetic blood sampling for aliskiren alone occurred on study Day 15 up to 24 hours post-dose (5-mL blood samples were collected into lithium heparin tubes on Day 15 of the study at pre-dose, 0.5, 1, 2, 3, 4, 6, 8, 12, 16 and 24 hours after dosing).

[4] = Ranges of arithmetic mean plasma pharmacokinetic parameters provided by the 300 mg solid oral dosage form (summary of the studies); assay type: in vivo; settings: human, range of study means
Protocol: For example, the present invention provides a solid oral dosage form comprising about 300 mg of aliskiren free base, or a respective amount of a pharmaceutically acceptable salt thereof, and a carrier medium, said dosage form providing an arithmetic mean maximum plasma concentration of aliskiren ranging from about 186 to about 394 ng/mL between about 0.25 and about 6 hours following administration of a single dosage of said dosage form.
Furthermore, the present invention provides a solid oral dosage form comprising about 300 mg aliskiren free base, or a respective amount of a pharmaceutically acceptable salt thereof, and a carrier medium, said dosage form providing an arithmetic mean AUC0-96 of aliskiren ranging from about 1480 to about 1859 ng·h/mL following administration of a single dosage of said dosage form. […]
The above description fully discloses the invention including preferred embodiments thereof. […] Arithmetic means for Cmax are calculated using the actual time points when the Cmax is observed whereas for the mean concentration versus time plots the nominal time values are employed.

[5] = steady state, 300 mg once a day, Caucasian subjects
[6] = steady state, 300 mg once a day, Japanese subjects

For `COCCCOc1cc(C[C@@H](C[C@H](N)[C@@H](O)C[C@H](C(=O)NCC(C)(C)C(N)=O)C(C)C)C(C)C)ccc1OC` [aliskiren, 2(S),4(S),5(S),7(S)—N-(3-amino-2,2-dimethyl-3-oxopropyl)-2,7-di(1-methylethyl)-4-hydroxy-5-amino-8-[4-methoxy-3-(3-methoxy-propoxy)phenyl]-octanamide], the hygroscopicity [1] was “highly hygroscopic”, the “Cavg^SS” value [2, 5] was 89 (33) ng/mL and the “Cavg^SS” value [2, 6] was 105 (49) ng/mL. It also gave a Tmax ([2]; single dose 300 mg, Caucasian subjects n=19, fasted, read-out: Tmax) of 2 h, a Tmax ([2]; single dose 300 mg, Japanese subjects n=19, fasted, read-out: Tmax) of 2 h and a Tmax ([2]; steady state, 300 mg once a day, Caucasian subjects, read-out: Tmax^SS) of 2 h. For the same compound, the Tmax ([2]; steady state, 300 mg once a day, Japanese subjects, read-out: Tmax^SS) was 4 h, the AUC(0-t) ([2]; single dose 300 mg, Caucasian subjects n=19) was 1120 ng·h/mL and the Cmax ([2]; single dose 300 mg, Caucasian subjects n=19, read-out: Cmax) was 186 ng/mL. For the same compound, the AUC(0-t) ([2]; single dose 300 mg, Japanese subjects n=19) was 1390 ng·h/mL, the Cmax ([2]; single dose 300 mg, Japanese subjects n=19, read-out: Cmax) was 215 ng/mL and the AUC [2, 5] was 2140 ng·h/mL. The Cmax ([2]; steady state, 300 mg once a day, Caucasian subjects, read-out: Cmax^SS) was 321 ng/mL, the AUC [2, 6] was 2520 ng·h/mL and the Cmax ([2]; steady state, 300 mg once a day, Japanese subjects, read-out: Cmax^SS) was 403 ng/mL. The “Cmin^SS” value ([3]; Geometric Mean) was 32.5 ng/mL, the AUCτ ([3]; Max) was 3801 ng·h/mL and the “Cmax^SS” value ([3]; Max) was 872.0 ng/mL. For the same compound, the “Cmin^SS” value ([3]; Max) was 56.5 ng/mL, the “tmax^SS” value ([3]; Max) was 6.00 h and the “Cmin^SS” value ([3]; Median) was 35.4 ng/mL. For the same compound, the AUCτ ([3]; Min) was 512 ng·h/mL, the “Cmax^SS” value ([3]; Min) was 27.3 ng/mL and the “Cmin^SS” value ([3]; Min) was 13.4 ng/mL. The “tmax^SS” value ([3]; Min) was 0.50 h, the “Cmin^SS” value ([3]; arithmetic mean) was 35.0 ng/mL and the AUC ([3]; Geometric Mean) was 2070 ng·h/mL. It also gave a Cmax ([3]; Geometric Mean) of 354 ng/mL, a Tmax ([3]; Geometric Mean) of 1.84 h and an AUC ([3]; Median) of 2320 ng·h/mL. The Cmax ([3]; Median) was 406 ng/mL, the Tmax ([3]; Median) was 2.24 h and the AUC ([3]; arithmetic mean) was 2310 ng·h/mL. The Cmax ([3]; arithmetic mean) was 425 ng/mL, the Tmax ([3]; arithmetic mean) was 2.23 h and the AUC ([4]; about 300 mg every 24 hours, steady state, read-out: arithmetic mean AUC0-τ of aliskiren) was 1670 to 2520 ng·h/mL. The AUC(0-t) ([4]; single dosage of about 300 mg free base, read-out: arithmetic mean AUC0-96 of aliskiren) was 1480 to 1860 ng·h/mL.
